Measured values taken from publication PMC6086658, “Unified mechanisms for self-RNA recognition by RIG-I Singleton-Merten syndrome variants” (eLife, 2018).
{Cy3} = Cy3 fluorescent label

Assays:
RIG-I [1] = target: T1, RIG-I (Homo sapiens, UniProt O95786); assay: Fluorescence anisotropy RNA binding; settings: 10 nM labeled RNA, one-site binding fit, n = 4
T1 construct: Recombinant full-length human RIG-I or RIG-I single amino acid mutants (1–925, N-terminal His-tag); made in house; host or cells: High Five (Trichoplusia ni) insect cells, baculovirus, pFBDM vector
T1 sequence (O95786 1-925): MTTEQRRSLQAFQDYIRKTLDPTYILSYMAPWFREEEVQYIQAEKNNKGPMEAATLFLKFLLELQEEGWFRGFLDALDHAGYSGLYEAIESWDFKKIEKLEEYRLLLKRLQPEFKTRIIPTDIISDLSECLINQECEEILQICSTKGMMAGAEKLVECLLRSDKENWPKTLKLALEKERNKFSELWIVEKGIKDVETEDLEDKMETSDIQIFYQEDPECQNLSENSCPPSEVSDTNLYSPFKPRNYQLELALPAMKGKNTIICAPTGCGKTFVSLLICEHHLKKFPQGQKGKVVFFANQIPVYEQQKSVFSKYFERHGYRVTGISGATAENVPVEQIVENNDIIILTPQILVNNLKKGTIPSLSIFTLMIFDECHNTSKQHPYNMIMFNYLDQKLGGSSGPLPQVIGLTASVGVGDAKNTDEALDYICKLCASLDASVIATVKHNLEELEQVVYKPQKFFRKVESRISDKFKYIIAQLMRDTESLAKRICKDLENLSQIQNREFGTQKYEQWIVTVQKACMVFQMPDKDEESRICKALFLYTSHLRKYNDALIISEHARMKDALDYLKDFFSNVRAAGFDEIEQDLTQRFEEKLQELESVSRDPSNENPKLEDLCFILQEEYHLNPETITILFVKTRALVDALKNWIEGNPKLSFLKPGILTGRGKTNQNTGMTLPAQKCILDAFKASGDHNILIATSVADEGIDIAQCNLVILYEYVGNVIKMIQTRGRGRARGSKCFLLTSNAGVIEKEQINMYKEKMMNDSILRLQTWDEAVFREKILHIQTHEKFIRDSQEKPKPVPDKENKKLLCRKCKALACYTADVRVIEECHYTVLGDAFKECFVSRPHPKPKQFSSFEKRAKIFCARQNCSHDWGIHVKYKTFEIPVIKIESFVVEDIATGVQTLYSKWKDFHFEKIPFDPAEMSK
Experimental: (§1) Affinities of full-length RIG-I or RIG-I C268F (1–925, N-terminal His-tag) to a Cy3-labeled hpRNA (5'-Cy3-[…]-3', purchased from Biomers, Ulm, Germany) were determined using fluorescence anisotropy. All samples were prepared in 96-well black chimney microplates (Greiner Bio-One, Kremsmünster, Austria). 10 nM RNA was pre-incubated with different protein concentrations (2.4 nM – 5 µM) for 15 min at room temperature in assay buffer (25 mM HEPES, 50 mM KCl, 5 mM MgCl2, 1 mM DTT, pH 7). Fluorescence anisotropy was measured after the addition of 5 mM ATP using a TECAN M1000 microplate reader (Tecan, Männedorf, Switzerland) at λex/em = 530/570 nm and gain = 130 during a time course of 25 min in 1 min intervals. Assays were performed four times in independent experiments using the same protein purification batch. For determination of affinities, anisotropy values between 15 and 20 min measuring time were averaged and fit to the following single-site binding model using R ([R Development Core Team, 2013]):(1) y=Bmax[P]/P+KD where y is the observed anisotropy, [P] is the protein concentration, Bmax is the maximal anisotropy and KD is the dissociation constant. Fitting was performed globally on all available datasets. Representative values in figures are mean values ± SD.

RIG-I C268F [2] = target: T2, RIG-I C268F (Homo sapiens, UniProt O95786, C268F); assay: Fluorescence anisotropy RNA binding; settings: 10 nM labeled RNA, one-site binding fit, n = 4
T2 construct: made in house; host or cells: High Five (Trichoplusia ni) insect cells, baculovirus, pFBDM vector
T2 sequence (O95786 1-925 C268F): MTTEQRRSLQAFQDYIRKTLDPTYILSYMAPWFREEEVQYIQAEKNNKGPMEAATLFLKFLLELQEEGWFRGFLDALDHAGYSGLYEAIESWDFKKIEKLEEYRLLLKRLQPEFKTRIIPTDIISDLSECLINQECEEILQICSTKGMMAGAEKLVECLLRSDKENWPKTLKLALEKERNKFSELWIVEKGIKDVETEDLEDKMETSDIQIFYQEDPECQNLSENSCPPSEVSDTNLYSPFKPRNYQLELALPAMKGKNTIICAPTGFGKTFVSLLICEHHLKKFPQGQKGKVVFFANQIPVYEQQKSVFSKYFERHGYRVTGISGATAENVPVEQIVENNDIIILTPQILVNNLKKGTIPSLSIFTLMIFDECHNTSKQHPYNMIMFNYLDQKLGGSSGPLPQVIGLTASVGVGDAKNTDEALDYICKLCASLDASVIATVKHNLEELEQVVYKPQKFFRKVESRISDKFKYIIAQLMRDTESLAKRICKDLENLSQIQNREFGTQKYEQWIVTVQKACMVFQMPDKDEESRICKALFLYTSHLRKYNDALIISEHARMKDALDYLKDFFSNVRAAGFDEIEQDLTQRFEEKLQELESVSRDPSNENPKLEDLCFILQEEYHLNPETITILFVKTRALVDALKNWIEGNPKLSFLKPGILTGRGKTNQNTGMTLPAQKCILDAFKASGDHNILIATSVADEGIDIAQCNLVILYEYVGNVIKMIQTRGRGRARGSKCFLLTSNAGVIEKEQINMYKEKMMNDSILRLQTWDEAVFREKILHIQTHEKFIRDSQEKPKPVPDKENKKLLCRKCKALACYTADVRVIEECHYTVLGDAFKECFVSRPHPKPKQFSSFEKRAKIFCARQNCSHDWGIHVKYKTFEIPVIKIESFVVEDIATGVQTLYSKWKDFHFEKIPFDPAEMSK
Experimental: as §1

RIG-I [3] = target: T1, RIG-I; assay: MANT-nucleotide binding, tryptophan fluorescence FRET; settings: n = 4
Experimental: Binding of MANT-ATP and MANT-ATPγS to different full-length RIG-I mutants (1–925, N-terminal His-tag) was determined via Förster resonance energy transfer from RIG-I to MANT-ATP (Jena Bioscience, Jena, Germany). […] Fluorescence of MANT-ATP was measured in a TECAN M1000 microplate reader at λex/em = 290/448 nm, gain = 170 using an average of five reads per well. Assays were performed four times in independent experiments using the same protein purification batch. For determination of affinities fluorescence values were fitted to Equation (1) using R, where y is the fluorescence, [P] is the protein concentration, Bmax is the maximal fluorescence and KD is the dissociation constant. Fitting was performed globally on all available datasets. Representative values in figures are mean values ± SD.

RIG-I C268F [4] = target: T2, RIG-I C268F; assay: as above
Experimental: Binding of MANT-ATP and MANT-ATPγS to different full-length RIG-I mutants (1–925, N-terminal His-tag) was determined via Förster resonance energy transfer from RIG-I to MANT-ATP (Jena Bioscience, Jena, Germany). All samples were prepared in 96-well black chimney microplates. 2.2 µM protein and equimolar concentrations of a 14mer dsRNA (5'-CGACGCUAGCGUCG-3', see 'Protein crystalization') were pre-incubated with different MANT-ATP concentrations (0.2 µM – 200 µM) for 15 min at room temperature in assay buffer (25 mM HEPES, 50 mM NaCl, 5 mM MgCl2, 1 mM DTT, pH 7). Fluorescence of MANT-ATP was measured in a TECAN M1000 microplate reader at λex/em = 290/448 nm, gain = 170 using an average of five reads per well. Assays were performed four times in independent experiments using the same protein purification batch. For determination of affinities fluorescence values were fitted to Equation (1) using R, where y is the fluorescence, [P] is the protein concentration, Bmax is the maximal fluorescence and KD is the dissociation constant. Fitting was performed globally on all available datasets. Representative values in figures are mean values ± SD.

Substance	Kd (RIG-I [1]; absence of ATP, read-out: KD, RIG-I) [µM]	Kd (RIG-I [1]; presence of 5 mM ATP, read-out: KD, RIG-I + ATP) [µM]	Kd (RIG-I C268F [2]; absence of ATP, read-out: KD, RIG-I C268F) [µM]	Kd (RIG-I C268F [2]; presence of 5 mM ATP, read-out: KD, RIG-I C268F + ATP) [µM]	Kd (RIG-I [3]; absence of RNA, full-length His-RIG-I, read-out: Affinity (KD) to RIG-I) [µM]	Kd (RIG-I [3]; presence of equimolar 14mer dsRNA, read-out: Affinity (KD) to RIG-I + RNA) [µM]	Kd (RIG-I C268F [4]; absence of RNA, n = 4, read-out: Affinity (KD) to RIG-I C268F) [µM]	Kd (RIG-I C268F [4]; presence of equimolar 14mer dsRNA, n.f. = no fit possible as no saturation was reached, read-out: Affinity (KD) to RIG-I C268F + RNA) [µM]
5'-Cy3-CCACCCGCCCCCCUAGUGAGGGGGGCGGGCC-3' (RNA, 5' {Cy3}, backbone not given here; RNA hairpin ligand with non-base-paired ends, used in fluorescence anisotropy binding assays) [fluorescently labeled 14mer dsRNA, Cy3-labeled hairpin RNA containing non-base-paired RNA ends, purchased from Biomers]	0.54	1.04	0.098	0.058				
MANT-ATPγS					58 ± 7	11 ± 1	116 ± 13	147 ± 55
